Results as given in ChEMBL document CHEMBL3627627, “1,2,3-Triazole-based analogue of benznidazole displays remarkable activity against Trypanosoma cruzi” (Bioorg Med Chem, 2015).
Each block holds one molecule with its values, some of them ahead of it. The source made the active and inactive calls. The rule behind the calls is not given here.

Columns and labels:
Trypanosoma cruzi [1] = assay: Antiparasitic activity against trypomastigote form of Trypanosoma cruzi Tulahuen-lacZ infected in LLC-MK2 ATCC cells assessed as parasite viability incubated for 4 days at 37 degC by chlorophenol beta-D-galactopyranose substrate based trypanocidal assay; assay type: functional, organism-based; details: LLC-MK2, 96 h
[2] = Cytotoxicity against C57BL/6 mouse spleen cells assessed as growth inhibition incubated for 24 hrs at 37 degC by propidium iodide stain based flow cytometry method; assay type: cell-based; details: for CC50 at 24 h: C57BL/6, mouse, spleen cells, read-out: ED50; for ED50: mouse, spleen, 24 h
[3] = Selectivity index, ratio of ED50 for C57BL/6 mouse spleen cells to IC50 for Trypanosoma cruzi Tulaheun; assay type: functional
Trypanosoma cruzi [4] = assay: Antiparasitic activity against amastigote form of Trypanosoma cruzi Y strain infected in bone marrow macrophage cells assessed as amastigote viability incubated for 4 days by rapid panoptic stain based microscopy method; assay type: functional, organism-based; details: 96 h
Trypanosoma cruzi [5] = assay: Antiparasitic activity against trypomastigote form of Trypanosoma cruzi Y strain assessed as parasite viability at 62.5 to 500 uM incubated for 24 hrs; assay type: functional, organism-based
Trypanosoma cruzi [6] = assay: Potency index, ratio of IC50 of benznidazole for Trypanosoma cruzi Tulahuen to IC50 of test compound for Trypanosoma cruzi Tulahuen; assay type: functional
Trypanosoma cruzi [7] = assay: Antiparasitic activity against trypomastigote form of Trypanosoma cruzi Y strain infected in Swiss mouse assessed as reduction in blood trypomastigote viability at 100 mg/kg/day, po starting on day 5 post-infection and followed for 10 consecutive days by light microscopy method; assay type: functional, organism-based
[8] = Solubility of the compound in water; assay type: physicochemical; details: buffer

Structure (SMILES): CCC(O)Cc1cn(CC(=O)NCc2ccccc2)nn1 (stereo not drawn)
IC50 (Trypanosoma cruzi [1]): > 500 µM
CC50 at 24 h [2]: 630 µM

Structure (SMILES): O=C(Cn1cc(-c2cccc(C(F)(F)F)c2)nn1)NCc1ccccc1
IC50 (Trypanosoma cruzi [1]): > 100 µM
ED50 [2]: Non-toxic

Structure (SMILES): COc1cc(OC)cc(-c2cn(CC(=O)NCc3ccccc3)nn2)c1
IC50 (Trypanosoma cruzi [1]): > 100 µM
ED50 [2]: Non-toxic

Structure (SMILES): CC(C)(C)OC(=O)NCc1cn(CC(=O)NCc2ccccc2)nn1
IC50 (Trypanosoma cruzi [1]): > 100 µM
CC50 at 24 h [2]: > 2000 µM

Structure (SMILES): Cc1ccccc1-c1cn(CC(=O)NCc2ccccc2)nn1
IC50 (Trypanosoma cruzi [1]): > 100 µM
CC50 at 24 h [2]: 940 µM
Selectivity Index [3]: 3.2

Structure (SMILES): COc1cccc(-c2cnnn2CC(=O)NCc2ccccc2)c1
IC50 (Trypanosoma cruzi [1]): 50 µM
CC50 at 24 h [2]: > 2000 µM
IC50 (Trypanosoma cruzi [4]): 60.4 µM

Structure (SMILES): O=C(Cn1cc(C(=O)O)nn1)NCc1ccccc1
IC50 (Trypanosoma cruzi [1]): > 100 µM
ED50 [2]: Non-toxic

Structure (SMILES): O=C(Cn1cc(CO)nn1)NCc1ccccc1
IC50 (Trypanosoma cruzi [1]): > 500 µM
CC50 at 24 h [2]: 490 µM

Structure (SMILES): O=C(Cn1nncc1-c1cccc([N+](=O)[O-])c1)NCc1ccccc1
IC50 (Trypanosoma cruzi [1]): 86 µM
ED50 [2]: Non-toxic
Activity (Trypanosoma cruzi [5]): inactive

Structure (SMILES): Nc1cccc(-c2cn(CC(=O)NCc3ccccc3)nn2)c1
IC50 (Trypanosoma cruzi [1]): > 100 µM
CC50 at 24 h [2]: 800 µM
Selectivity Index [3]: 4.4

Structure (SMILES): O=C(Cn1cc(C(=O)OCc2ccccc2)nn1)NCc1ccccc1
IC50 (Trypanosoma cruzi [1]): > 500 µM
CC50 at 24 h [2]: 720 µM

Structure (SMILES): COc1ccc(-c2cn(CC(=O)NCc3ccccc3)nn2)cc1
IC50 (Trypanosoma cruzi [1]): > 100 µM
ED50 [2]: Non-toxic

Structure (SMILES): Cc1ccc(-c2cn(CC(=O)NCc3ccccc3)nn2)cc1
IC50 (Trypanosoma cruzi [1]): > 100 µM
ED50 [2]: Non-toxic

solubility [8]: Insoluble
Structure (SMILES): O=C(Cn1cc(-c2ccc([N+](=O)[O-])cc2)nn1)NCc1ccccc1
IC50 (Trypanosoma cruzi [1]): 7 µM
Ratio IC50 (Trypanosoma cruzi [6]): 5
CC50 at 24 h [2]: 800 µM
Selectivity Index [3]: 114.3
Activity (Trypanosoma cruzi [5]): Active
IC50 (Trypanosoma cruzi [4]): 41.2 µM
Activity (Trypanosoma cruzi [7]): Active

Structure (SMILES): O=C(Cn1ccnc1[N+](=O)[O-])NCc1ccccc1 [BENZNIDAZOLE]
IC50 (Trypanosoma cruzi [1]): 34 µM
Activity (Trypanosoma cruzi [5]): Active
IC50 (Trypanosoma cruzi [4]): 16 µM

Structure (SMILES): O=C(Cn1cc(CCCCO)nn1)NCc1ccccc1
IC50 (Trypanosoma cruzi [1]): > 400 µM
CC50 at 24 h [2]: 1700 µM

Structure (SMILES): CC(C)(O)c1cn(CC(=O)NCc2ccccc2)nn1
IC50 (Trypanosoma cruzi [1]): > 400 µM
CC50 at 24 h [2]: 1600 µM

Structure (SMILES): O=C(Cn1cc(-c2cccc([N+](=O)[O-])c2)nn1)NCc1ccccc1
IC50 (Trypanosoma cruzi [1]): > 100 µM
CC50 at 24 h [2]: > 2000 µM
Activity (Trypanosoma cruzi [5]): inactive

Structure (SMILES): O=C(Cn1nncc1-c1ccc([N+](=O)[O-])cc1)NCc1ccccc1
IC50 (Trypanosoma cruzi [1]): > 100 µM
ED50 [2]: Non-toxic
Activity (Trypanosoma cruzi [5]): inactive

Structure (SMILES): O=C(Cn1cc(-c2ccccc2[N+](=O)[O-])nn1)NCc1ccccc1
IC50 (Trypanosoma cruzi [1]): > 100 µM
ED50 [2]: Non-toxic
Activity (Trypanosoma cruzi [5]): inactive

Structure (SMILES): NCc1cn(CC(=O)NCc2ccccc2)nn1
IC50 (Trypanosoma cruzi [1]): > 500 µM
CC50 at 24 h [2]: > 2000 µM

Structure (SMILES): COc1cccc(-c2cn(CC(=O)NCc3ccccc3)nn2)c1
IC50 (Trypanosoma cruzi [1]): 40 µM
CC50 at 24 h [2]: 840 µM
Selectivity Index [3]: 21
IC50 (Trypanosoma cruzi [4]): 61.8 µM

Structure (SMILES): O=C(O)CCCCc1cn(CC(=O)NCc2ccccc2)nn1
IC50 (Trypanosoma cruzi [1]): > 500 µM
CC50 at 24 h [2]: 1080 µM

Structure (SMILES): O=C(Cn1cc(-c2ccccc2C(F)(F)F)nn1)NCc1ccccc1
IC50 (Trypanosoma cruzi [1]): > 100 µM
ED50 [2]: Non-toxic

Structure (SMILES): O=C(Cn1nncc1CO)NCc1ccccc1
IC50 (Trypanosoma cruzi [1]): > 100 µM
CC50 at 24 h [2]: > 2000 µM

Structure (SMILES): Nc1ccc(-c2cn(CC(=O)NCc3ccccc3)nn2)cc1
IC50 (Trypanosoma cruzi [1]): > 100 µM
CC50 at 24 h [2]: 1240 µM
Selectivity Index [3]: 7.7

Structure (SMILES): O=C(Cn1cc(-c2cccc(F)c2)nn1)NCc1ccccc1
IC50 (Trypanosoma cruzi [1]): > 100 µM
ED50 [2]: Non-toxic

Structure (SMILES): O=C(O)CCc1cn(CC(=O)NCc2ccccc2)nn1
IC50 (Trypanosoma cruzi [1]): > 500 µM
CC50 at 24 h [2]: 1420 µM
